Laboratory results: PubChem BioAssay (NCI)
“And” between values parts separate entries of the source, which are not always exact repeats. Equal entries are not always repeated.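 Five compound concentrations were applied to cells in 96-well plates for 48 hours; endpoints were derived by simple linear interpolation of the resulting dose-response curve. The concentration for 50% growth inhibition is given as GI50. TGI denotes the concentration required for complete inhibition of growth.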

Key:
Assay in all cases: NCI tumour cell line growth inhibition, 48 h
HCT-15 colon = system: HCT-15 colon
DU-145 prostate = system: DU-145 prostate
T-47D breast = system: T-47D breast
OVCAR-3 ovarian = system: OVCAR-3 ovarian
HT29 colon = system: HT29 colon
UACC-62 melanoma = system: UACC-62 melanoma
786-0 renal = system: 786-0 renal
DLD-1 colon = system: DLD-1 colon
CCRF-CEM leukemia = system: CCRF-CEM leukemia
HCC-2998 colon = system: HCC-2998 colon
SNB-75 CNS = system: SNB-75 CNS
UACC-257 melanoma = system: UACC-257 melanoma
XF 498 CNS = system: XF 498 CNS
SN12K1 renal = system: SN12K1 renal
HOP-92 NSCLC = system: HOP-92 NSCLC
RXF 393 renal = system: RXF 393 renal
COLO 205 colon = system: COLO 205 colon

SMILES: CCOC(=O)C(CC(C)C)NC(=O)C(Cc1ccc(N(CCCl)CCCl)cc1)NC(C)=O (configuration not stated)
- TGI (HCT-15 colon): 43.1 µM
- TGI (DU-145 prostate): 21.9 µM
- TGI (T-47D breast): 11.2 µM
- GI50 (OVCAR-3 ovarian): 15.1 µM
- TGI (OVCAR-3 ovarian): 29.2 µM and 13.7 µM
- GI50 (HT29 colon): 14.9 µM
- TGI (HT29 colon): 36.7 µM and 31.8 µM
- GI50 (UACC-62 melanoma): 2860 nM
- TGI (UACC-62 melanoma): 12.7 µM and 7.29 µM
- GI50 (786-0 renal): 4.11 µM
- TGI (786-0 renal): 16.6 µM and 8.47 µM
- GI50 (DLD-1 colon): 5.4 µM and 8.64 µM
- TGI (DLD-1 colon): 21.1 µM and 31.3 µM
- GI50 (CCRF-CEM leukemia): 2520 nM
- GI50 (HCC-2998 colon): 17.2 µM
- TGI (HCC-2998 colon): 31.5 µM and 30.6 µM
- GI50 (SNB-75 CNS): 8.51 µM
- TGI (SNB-75 CNS): 21.7 µM and 24.9 µM
- TGI (UACC-257 melanoma): 14 µM and 13.1 µM
- TGI (XF 498 CNS): 1140 nM
- TGI (SN12K1 renal): 10.4 µM
- GI50 (HOP-92 NSCLC): 1250 nM
- TGI (HOP-92 NSCLC): 3750 nM and 1400 nM
- GI50 (RXF 393 renal): 2570 nM
- TGI (RXF 393 renal): 6.75 µM and 4.46 µM
- GI50 (COLO 205 colon): 7.01 µM
- TGI (COLO 205 colon): 19.8 µM and 13 µM
